Tests used:
cyclin-D1 [1] = test: Western blotting of cyclin-D1 in TIG-1; type: cell-based, human; details: normal cells (TIG-1), FIG. 10B
Experimental: (§1) In order to investigate the cytotoxicity action mechanism of triethylene glycol, human osteosarcoma cells (U2OS) and normal human fibroblasts (TIG-1) were each treated with AshLe-WEX or triethylene glycol (TEG), and the expression of cancer-inhibiting proteins p53 and pRB was examined by SDS-PAGE and Western blotting. Treatment with AshLe-WEX or triethylene glycol (TEG) was conducted by adding AshLe-WEX (final concentration: 0.5%) or triethylene glycol (final concentration: 0.5%, 1.0%, or 2.0%) to a medium for culturing cells and culturing for 48 hours. […] Numbers 1-5 in the bar charts of the expression level in the lower half of FIG. 10A correspond to numbers 1-5 of the lanes in the photo images in the upper half of FIG. 10A. […] It was found based on the proportion of phosphorylated-p53/p53 that phosphorylation rate increased in cells treated with AshLe-WEX or triethylene glycol by 30% to 40%, as compared with the control group. […] The proportion of phosphorylated-pRB/RB decreased from about 0.5 in control cells to about 0.3 in cells treated with triethylene glycol ([…]) while it increased by about 20% in normal cells in contrast.
(§2) In parallel with the above, the expression levels of cyclin-B1, -D1, and -E1 and CDK-2, -4, and -6 were examined. […] On the other hand, the tendency regarding the expression levels for cyclin-D1 was the opposite of that for cyclin-B1. […]

[2] = test system: IMR32 neuroblastoma cells; test: Differentiation induction assay of neuroblastoma cells; type: cell-based; details: 0.5%, FIG. 16
Experimental: Next, effects on IMR32 neuroblastoma cells treated with […] or triethylene glycol were examined. Differentiation of neuroblastoma cells was induced by treating the neuroblastoma cells with 100 μmol of hydrogen peroxide for 2 to 3 hours and then culturing the cells in a medium containing […] or triethylene glycol (final concentration: 0.5%). As control groups, a group of cells that had been treated with hydrogen peroxide in the above manner and then cultured in a medium containing neither […] nor triethylene glycol and a group of cells that no hydrogen peroxide treatment was conducted and cultured in a medium containing neither […] nor triethylene glycol without hydrogen peroxide treatment were prepared.

MMP-3 = test: Expression level of MMP-3; type: cell-based, human; details: A549, 48 hours, AshLe-WEX 0.5% or TEG 0.5%, 1.0% or 2.0%, FIG. 14
Source text: (§3) In order to examine the antimetastatic activity mechanism of […] and triethylene glycol, the expression levels of matrix metalloproteases (MMP-9, MMP-3, and MMP-2) were examined. Human lung cancer cells (A549) were used for examination. […] This effect was not observed for MMP-2.

[3] = test system: glioblastoma cells (C6 Glioma cells); test: Differentiation induction assay of glioblastoma cells; type: cell-based; details: 0.6%, 48 hours
Experimental: Differentiation induction of glioblastoma cells and neuroblastoma cells by triethylene glycol was examined. Differentiation of glioblastoma cells was induced by treating the cells with 100 μmol of hydrogen peroxide for 2 to 3 hours and then culturing the cells in a medium containing […] or triethylene glycol (final concentration: 0.6%) for 48 hours. Cells of a control group were treated with hydrogen peroxide in the above manner and then cultured in a medium containing neither […] nor triethylene glycol.

cyclin-E1 [4] = test: Western blotting of cyclin-E1 in TIG-1; type: cell-based, human; details: normal cells (TIG-1), FIG. 10B
Experimental: as §1, §2

[5] = test system: human osteosarcoma cells (U2OS); test: Cell cycle analysis; type: cell-based; details: FIG. 6
Experimental: (§4) Cytotoxicity of triethylene glycol to human osteosarcoma cells (U2OS) and normal human fibroblasts (TIG-1) was tested in the manner described in item 5 above. […] Further, cell cycle analysis was conducted using human osteosarcoma cells (U2OS).

cyclin-E1 [6] = test: Western blotting of cyclin-E1 in U2OS; type: cell-based, human; details: cancer cells (U2OS), FIG. 10B
Experimental: as §1, §2

cyclin-B1 [7] = test: Western blotting of cyclin-B1 in TIG-1; type: cell-based, human; details: normal cells (TIG-1), vs control, FIG. 10B
Source text: (§5) In order to investigate the cytotoxicity action mechanism of triethylene glycol, human osteosarcoma cells (U2OS) and normal human fibroblasts (TIG-1) were each treated with […] or triethylene glycol (TEG), and the expression of cancer-inhibiting proteins p53 and pRB was examined by SDS-PAGE and Western blotting. […] Numbers 1-5 in the bar charts of the expression level in the lower half of FIG. 10A correspond to numbers 1-5 of the lanes in the photo images in the upper half of FIG. 10A. […] In parallel with the above, the expression levels of cyclin-B1, -D1, and -E1 and CDK-2, -4, and -6 were examined. […] On the other hand, the tendency regarding the expression levels for cyclin-D1 was the opposite of that for cyclin-B1. In the case of treatment with triethylene glycol, the expression level of cyclin-D1 increased in cancer cells but decreased in normal cells. The expression level of cyclin-E1 increased in both cancer cells and normal cells. The expression level of CDK-4 decreased in normal cells.

pRB [8] = test: Immunohistochemistry of pRB phosphorylation in TIG-1; type: cell-based, human; details: normal cells (TIG-1), 0.5%, 48 hours, FIG. 11
Experimental: (§6) Immunohistochemistry was conducted for visualizing the degree of phosphorylation of p53 and pRB in human osteosarcoma cells (U2OS) and normal human fibroblasts (TIG-1) treated with […] or triethylene glycol. Treatment with […] or triethylene glycol was conducted by adding […] or triethylene glycol to a medium such that a final concentration becomes 0.5% and culturing the cells in each medium for 48 hours. The cells were stained with an anti-p53 antibody (DO-1) and an anti-pRB antibody ([…]). Immunostaining was visualized using an Alexa-488- or Alexa-594-labeled secondary antibody. Regarding pRB, which is a downstream effector of a cyclin-CDK complex, the degree of phosphorylation decreased in cancer cells treated with […] or triethylene glycol but increased in normal cells treated with […] or triethylene glycol (FIG. 11).

HT1080 cells = test: In vitro Matrigel invasion assay; type: cell-based, human; details: FIG. 9
Keap1 = test: Western blotting of Keap1 expression; type: cell-based; details: human lung cancer cells (A549), FIG. 13
p53 [9] = test: Western blotting of p53 in TIG-1; type: cell-based, human; details: normal cells (TIG-1)
Source text: (§7) In order to investigate the cytotoxicity action mechanism of triethylene glycol, human osteosarcoma cells (U2OS) and normal human fibroblasts (TIG-1) were each treated with […] or triethylene glycol (TEG), and the expression of cancer-inhibiting proteins p53 and pRB was examined by SDS-PAGE and Western blotting. […] Numbers 1-5 in the bar charts of the expression level in the lower half of FIG. 10A correspond to numbers 1-5 of the lanes in the photo images in the upper half of FIG. 10A.

[10] = test system: HT1080 cells (human fibrosarcoma cells); test: In vivo antitumor assay, HT1080 subcutaneous xenograft; parameters: species or system Balb/c nude mice; details: oral administration, 250 μL of 5% triethylene glycol with 2% carboxymethyl cellulose, 12 times at intervals of two days, FIG. 7
Experimental: In vivo antitumor assay of AshLe-WEX and triethylene glycol was conducted using subcutaneous xenograft and tail vein metastasis model mice produced with the use of HT1080 cells from an invasive tumor with high lung metastasis (human fibrosarcoma cells, obtained from the JCRB Cell Bank).
HT1080 cells (6×10^6 cells in 0.2 mL of growth medium) were subcutaneously injected into Balb/c nude mice (4-week-old female mice purchased from CLEA Japan, Inc.) at two sites per mouse, and an equivalent amount of the same was injected into the tail vein of each mouse. 2% carboxymethyl cellulose was administered with feed to a control group. A mixture containing AshLe-WEX (100-250 mg/kg body weight/administration) and 2% carboxymethyl cellulose was administered with feed to an AshLe-WEX group. A TEG group was given a 5% triethylene glycol aqueous solution via oral administration (at a dose per administration of 250 μL of a preparation of 5% triethylene glycol mixed with 2% carboxymethyl cellulose) or intraperitoneal injection (at a dose per administration of 100 μL of 5% triethylene glycol). […] For metastasis assay, each mouse was euthanized by cervical dislocation 5 weeks after tail vein injection, the lung was fixed with 4% formaldehyde, and the number of tumor colonies was counted. […]

[11] = test system: HT1080 cells (human fibrosarcoma cells); test: In vivo tumor metastasis assay, HT1080 tail vein injection; parameters: species or system Balb/c nude mice
Experimental: In vivo antitumor assay of […] and triethylene glycol was conducted using subcutaneous xenograft and tail vein metastasis model mice produced with the use of HT1080 cells from an invasive tumor with high lung metastasis (human fibrosarcoma cells, obtained from the JCRB Cell Bank). […] This administration treatment was started on day 8 after injection of HT1080 cells and repeated 12 times in total at intervals of two days. […] This assay was repeated twice using three mice for each group.

pRB [12] = test: Western blotting of pRB in U2OS; type: cell-based, human
Source text: as §7

cyclin-B1 [13] = test: Western blotting of cyclin-B1 in U2OS; type: cell-based, human; details: cancer cells (U2OS), FIG. 10B
Source text: as §5

CDK-4 = test: Western blotting of CDK-4 in TIG-1; type: cell-based, human; details: normal cells (TIG-1), FIG. 10B
Experimental: as §1, §2

[14] = test system: normal human fibroblasts (TIG-1); test: Cytotoxicity assay using MTT, TIG-1; type: cell-based; details: TIG-1, FIG. 5
Experimental: (§8) Human osteosarcoma cells (U2OS) were cultured in a humidified incubator (37° C., 5% CO2) using a medium in which Dulbecco's modified Eagle's medium (DMEM, Invitrogen) is added with 10% bovine fetal serum. The cells were cultured to become 40% to 60% confluent and treated with AshLe-WEX (final concentration: 1%; 200 μg/mL) and the 1st and 2nd fractions thereof (AshLe-WEX-F1 and F2), respectively. The cells were treated over about 48 hours during culture at 37° C.
(§9) AshLe-WEX and the fractions thereof were evaluated in terms of cytotoxicity by assay using MTT. After the above treatment, MTT (0.5 mg/mL) was added to each cell culture medium, followed by incubation for 4 hours. Next, the medium containing MTT was removed and 100 μL of DMSO was added to each well to completely dissolve formazan crystals. Absorbance was detected at 550 nm using a spectrophotometer (Wallac ARVO SX).
as §4

pRB [15] = test: Western blotting of pRB in TIG-1; type: cell-based, human; details: normal cells (TIG-1), vs control
Source text: as §7

pRB [16] = test: Immunohistochemistry of pRB phosphorylation in U2OS; type: cell-based, human; details: cancer cells (U2OS), 0.5%, 48 hours, FIG. 11
Experimental: as §6

MMP-2 = test: Expression level of MMP-2; type: cell-based, human; details: A549, 48 hours, AshLe-WEX 0.5% or TEG 0.5%, 1.0% or 2.0%, FIG. 14
Source text: as §3

cyclin-D1 [17] = test: Western blotting of cyclin-D1 in U2OS; type: cell-based, human; details: cancer cells (U2OS), FIG. 10B
Experimental: as §1, §2

MMP-9 = test: Expression level of MMP-9; type: cell-based, human; details: A549, 48 hours, AshLe-WEX 0.5% or TEG 0.5%, 1.0% or 2.0%, FIG. 14
Source text: as §3

p21 = test: Western blotting of p21 in TIG-1; type: cell-based, human; details: normal cells (TIG-1), 48 hours, vs control, FIG. 10A
Source text: as §7

p53 [18] = test: Western blotting of p53 in U2OS; type: cell-based, human
Source text: as §7

[19] = test system: human osteosarcoma cells (U2OS); test: Cytotoxicity assay using MTT, U2OS; type: cell-based; details: FIG. 5
Experimental: as §8, §9, §4

[20] = cancer cells (U2OS), vs control

OCCOCCOCCO [triethylene glycol]
expression level of cyclin-D1 (cyclin-D1 [1]): decreased | cell form (differentiation induction) ([2]; after 100 μmol hydrogen peroxide 2 to 3 hours): neuron-like form | neurofilament protein (NF200) ([2]; after hydrogen peroxide): increase | expression level of MMP-3 (MMP-3): remarkably decreased | cell form (differentiation induction) ([3]; after 100 μmol hydrogen peroxide 2 to 3 hours, FIG. 15A): astrocyte-like form | induction of GFAP (glial cell differentiation marker protein) ([3]; after hydrogen peroxide, FIG. 15B): upregulated | expression level of cyclin-E1 (cyclin-E1 [4]): increased | cell cycle effect [5]: G1 arrest | expression level of cyclin-E1 (cyclin-E1 [6]): increased | expression level of cyclin-B1 (cyclin-B1 [7]): increased | degree of phosphorylation of pRB (immunohistochemistry) (pRB [8]): increased | invasion (HT1080 cells): reduced | expression level of Keap1 (Keap1): increase | expression level of p53 (p53 [9]; 48 hours, vs control, FIG. 10A): increased | phosphorylated-p53 protein (p53 [9]; anti-phosphoserine-specific antibody): increased | tumor growth [10]: effect of tumor growth inhibition was confirmed | antimetastatic activity ([11]; lung, 5 weeks after tail vein injection, FIG. 8): powerful antimetastatic activity | number of lung tumors ([11]; vs control group, FIG. 8): lower than that of the control group | lung tumor volumes ([11]; vs control group, FIG. 8B): significantly low | proportion of phosphorylated-pRB/RB (pRB [12]; cancer cells (U2OS) treated, control cells about 0.5): about 0.3 | decrease of proportion of phosphorylated-pRB/RB (pRB [12]; [20]): about 20% | phosphorylated-pRB (pRB [12]; [20]): decreased | expression level of cyclin-B1 (cyclin-B1 [13]): decreased | expression level of CDK-4 (CDK-4): decreased | toxicity to normal human fibroblasts [14]: substantially no toxicity | increase of proportion of phosphorylated-pRB/RB (pRB [15]): about 20% | phosphorylated-pRB (pRB [15]): increased | degree of phosphorylation of pRB (immunohistochemistry) (pRB [16]): decreased | decrease of expression level of MMP-2 (MMP-2): not observed | expression level of cyclin-D1 (cyclin-D1 [17]): increased | expression level of MMP-9 (MMP-9): remarkably decreased | expression level of p21 (p21): increased | expression level of p53 (p53 [18]; U2OS, 48 hours, AshLe-WEX 0.5% or TEG 0.5%, 1.0% or 2.0%, vs control, FIG. 10A): increased | phosphorylated-p53 protein (p53 [18]; cancer cells (U2OS), anti-phosphoserine-specific antibody): increased | concentration at which cancer cell growth is inhibited [19]: ≥ 0.5%

Source: patent US20160113888A1, “PHARMACEUTICAL COMPOSITION FOR TREATMENT OF CANCER” (NATIONAL INSTITUTE OF ADVANCED INDUSTRIAL SCIENCE AND …, priority 2013, published 2016)
